Molecular target: T1, recombinant Plk1 protein (Homo sapiens, UniProt P53350)
T1 construct: histidine tag (N); made in house; host or cells: SF9 insect cells
Test: Plk1 kinase activity inhibition assay (33P-ATP, alpha casein substrate, flash plates)
Assay type: biochemical
Settings: enzymatic assay, 100 nM Li-ATP, 80 minutes at 30° C.
Summary of the method: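 IC50 derived from radioactive flash-plate counts of 33P-labelled alpha casein after 80 min at 30 °C. Reaction: 100 nM 33P-containing ATP, 50–100 ng His-tagged Plk1 (SF9-expressed), 500 ng casein per well, HEPES pH 7.5 buffer with MgCl2/MnCl2.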

T1 sequence (P53350 whole entry): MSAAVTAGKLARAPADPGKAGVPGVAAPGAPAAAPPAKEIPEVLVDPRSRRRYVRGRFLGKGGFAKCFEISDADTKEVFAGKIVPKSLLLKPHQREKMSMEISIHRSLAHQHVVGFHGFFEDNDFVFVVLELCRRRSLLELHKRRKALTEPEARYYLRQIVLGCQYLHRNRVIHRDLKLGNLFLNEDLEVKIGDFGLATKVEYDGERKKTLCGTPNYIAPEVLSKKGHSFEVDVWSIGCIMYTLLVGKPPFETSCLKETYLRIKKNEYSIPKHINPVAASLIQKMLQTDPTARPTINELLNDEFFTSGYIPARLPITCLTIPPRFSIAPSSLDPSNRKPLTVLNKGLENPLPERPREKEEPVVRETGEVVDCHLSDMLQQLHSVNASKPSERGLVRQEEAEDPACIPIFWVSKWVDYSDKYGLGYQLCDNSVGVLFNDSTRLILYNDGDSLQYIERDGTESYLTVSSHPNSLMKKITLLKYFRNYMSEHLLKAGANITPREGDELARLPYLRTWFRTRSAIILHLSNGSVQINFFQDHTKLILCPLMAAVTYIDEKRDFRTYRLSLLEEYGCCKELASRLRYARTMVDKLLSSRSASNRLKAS

Row | SMILES | IC50 [µM]
1 | CCC(Oc1cc(-n2cnc3cnc(CN4CCN(c5ccncc5)CC4)cc32)sc1C(N)=O)c1ccccc1Cl (stereo not drawn) [Example 143, 3-{[1-(2-chlorophenyl)propyl]oxy}-5-{6-[(4-pyridin-4-ylpiperazin-1-yl)methyl]-1H-imidazo[4,5-c]pyridin-1-yl}thiophene-2-carboxamide] | 0.01 to 0.1
2 | C[C@@H](Oc1cc(-n2cnc3cnc(CN4CCC(N(C)C)C4)cc32)sc1C(N)=O)c1ccccc1C(F)(F)F (stereo partly drawn) [Example 144, 5-(6-{[3-(dimethylamino)pyrrolidin-1-yl]methyl}-1H-imidazo[4,5-c]pyridin-1-yl)-3-{(1R)-1-[2-(trifluoromethyl)phenyl]ethoxy}thiophene-2-carboxamide] | < 0.01
3 | C[C@@H](Oc1cc(-n2cnc3cnc(CN4CCN(CC(=O)N5CCCC5)CC4)cc32)sc1C(N)=O)c1ccccc1C(F)(F)F [Example 145, 5-(6-{[4-(2-oxo-2-pyrrolidin-1-ylethyl)piperazin-1-yl]methyl}-1H-imidazo[4,5-c]pyridin-1-yl)-3-{(1R)-1-[2-(trifluoromethyl)phenyl]ethoxy}thiophene-2-carboxamide] | 0.01 to 0.1
4 | NC(=O)c1sc(-n2cnc3cnc(CO)cc32)cc1O[C@@H](CO)c1ccccc1Cl [Example 146, 3-[(1R)-1-(2-chlorophenyl)-2-hydroxyethoxy]-5-[6-(hydroxymethyl)-1H-imidazo[4,5-c]pyridin-1-yl]thiophene-2-carboxamide] | < 0.01
5 | C[C@@H](Oc1cc(-n2cnc3cnc(CNCCN4CCOCC4)cc32)sc1C(N)=O)c1ccccc1C(F)(F)F [Example 147, 5-(6-{[(2-morpholin-4-ylethyl)amino]methyl}-1H-imidazo[4,5-c]pyridin-1-yl)-3-{(1R)-1-[2-(trifluoromethyl)phenyl]ethoxy}thiophene-2-carboxamide] | 0.01 to 0.1
6 | Cc1ccccc1C(C)Oc1cc(-n2cnc3cnc(CN4CCN(C)CC4)cc32)sc1C(N)=O (stereo not drawn) [Example 148, 3-[1-(2-methylphenyl)ethoxy]-5-{6-[(4-methylpiperazin-1-yl)methyl]-1H-imidazo[4,5-c]pyridin-1-yl}thiophene-2-carboxamide] | < 0.01
7 | Cc1ccccc1C(C)Oc1cc(-n2cnc3cnc(CN4CCN(C(C)C)CC4)cc32)sc1C(N)=O (stereo not drawn) [Example 149, 5-{6-[(4-isopropylpiperazin-1-yl)methyl]-1H-imidazo[4,5-c]pyridin-1-yl}-3-[1-(2-methylphenyl)ethoxy]thiophene-2-carboxamide] | 0.01 to 0.1
8 | CCN1CCN(Cc2cc3c(cn2)ncn3-c2cc(OC(C)c3ccccc3C)c(C(N)=O)s2)CC1 (stereo not drawn) [Example 150, 5-{6-[(4-ethylpiperazin-1-yl)methyl]-1H-imidazo[4,5-c]pyridin-1-yl}-3-[1-(2-methylphenyl)ethoxy]thiophene-2-carboxamide] | 0.01 to 0.1
9 | CCC(Oc1cc(-n2cnc3cnc(CN4CCN(CCN(C)C)CC4)cc32)sc1C(N)=O)c1ccccc1Cl (stereo not drawn) [Example 151, 3-{[1-(2-chlorophenyl)propyl]oxy}-5-[6-({4-[2-(dimethylamino)ethyl]piperazin-1-yl}methyl)-1H-imidazo[4,5-c]pyridin-1-yl]thiophene-2-carboxamide] | 0.1 to 1
10 | CCN1CCN(Cc2cc3c(cn2)ncn3-c2cc(OC(C)c3ccccc3F)c(C(N)=O)s2)CC1 (stereo not drawn) [Example 152, 5-{6-[(4-ethylpiperazin-1-yl)methyl]-1H-imidazo[4,5-c]pyridin-1-yl}-3-[1-(2-fluorophenyl)ethoxy]thiophene-2-carboxamide] | 0.01 to 0.1
11 | CCc1ccccc1COc1cc(-n2cnc3cnc(CN4CCN(C)CC4)cc32)sc1C(N)=O [Example 153, 3-[(2-ethylbenzyl)oxy]-5-{6-[(4-methylpiperazin-1-yl)methyl]-1H-imidazo[4,5-c]pyridin-1-yl}thiophene-2-carboxamide] | < 0.01
12 | CCc1ccccc1COc1cc(-n2cnc3cnc(CN4CCN(CC)CC4)cc32)sc1C(N)=O [Example 154, 3-[(2-ethylbenzyl)oxy]-5-{6-[(4-ethylpiperazin-1-yl)methyl]-1H-imidazo[4,5-c]pyridin-1-yl}thiophene-2-carboxamide] | 0.01 to 0.1
